The values that follow come from patent publication US20180180595A1, “CELL LINES MUTANT FOR PATCHED 1 AND PATCHED 2 AND METHODS OF USE THEREOF” (The Regents of the University of California, priority 2015, published 2018).

The subject of this experiment is hedgehog response pathway. Description: Hh pathway response in neuralized embryoid bodies from Ptch1-/-;Ptch2-/- mESCs. It is filed as cell-based, murine. Particulars: Ptch1-/-;Ptch2-/- mESCs differentiated into NEBs; agent added exogenously. The text has this: In the absence of Ptch1, Ptch2 can mediate some measure of the Shh response. Given the contribution of both Ptch1 and Ptch2 to the interpretation of the Shh signal, it was reasoned that a Ptch1^−/−;Ptch2^−/− genetic background was essential to assess the aggregate contribution of Ptch1/2 to Shh signaling. […] The Ptch1^−/−;Ptch2^−/−;Shh^−/− assessed here have a LacZ under the control of the Ptch1 promoter (Goodrich et al., Science. 1997, 277:1109-1113). Since the upregulation of Ptch1 is a common response to the activation of the Hh response pathway, induction of LacZ in NEBs was assessed. A strong induction of LacZ was observed after three days into the differentiation protocol, consistent with the ventral identity observed using neural markers.

As for `CNC1CCC(N(Cc2cccc(-c3ccncc3)c2)C(=O)c2sc3ccccc3c2Cl)CC1` (stereo not shown) [SAG], the “induction of the hedgehog response pathway” value was “could not be further induced”.
